According to PMC10914734 (Signal Transduction and Targeted Therapy, 2024):

Each molecule was assayed against Human CTSL (Homo sapiens, UniProt P07711) (assay: FRET-based cleavage assay, enzymatic inhibition of human CTSL). Conditions: not given.
Sequence of Human CTSL (P07711 114-333): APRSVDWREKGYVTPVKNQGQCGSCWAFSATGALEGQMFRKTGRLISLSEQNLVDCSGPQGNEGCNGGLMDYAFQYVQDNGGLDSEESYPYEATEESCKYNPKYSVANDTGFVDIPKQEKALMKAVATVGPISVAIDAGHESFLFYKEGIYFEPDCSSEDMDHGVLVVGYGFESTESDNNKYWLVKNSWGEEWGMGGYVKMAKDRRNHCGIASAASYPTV
`O=C(N/N=C/[C@H](C[C@@H]1CCCNC1=O)NC(=O)[C@H](Cc1ccc(F)cc1)NC(=O)c1cc2ccccc2o1)c1ccccc1` [14e, N-((S)-1-(((S,E)-1-(2-benzoylhydrazineylidene)-3-((S)-2-oxopiperidin-3-yl)propan-2-yl)amino)-3-(4-fluorophenyl)-1-oxopropan-2-yl)benzofuran-2-carboxamide] showed an IC50 of 3940 nM.
`O=C(N[C@@H](Cc1ccc(F)cc1)C(=O)N[C@H](/C=N/NC(=O)C1CC1)C[C@@H]1CCCNC1=O)c1cc2ccccc2o1` [14g, N-((S)-1-(((S,E)-1-(2-(cyclopropanecarbonyl)hydrazineylidene)-3-((S)-2-oxopiperidin-3-yl)propan-2-yl)amino)-3-(4-fluorophenyl)-1-oxopropan-2-yl)benzofuran-2-carboxamide] was tested, and the IC50 was 1320 nM.
`CC1(C)[C@@H]2[C@@H](C(=O)N[C@@H](C[C@@H]3CCCNC3=O)C(=O)C(=O)NCc3ccccc3)N(C(=O)c3cc4ccccc4o3)C[C@@H]21` [14m, (1R,2S,5S)-3-(benzofuran-2-carbonyl)-N-((S)-4-(benzylamino)-3,4-dioxo-1-((S)-2-oxopiperidin-3-yl)butan-2-yl)-6,6-dimethyl-3-azabicyclo[3.1.0]hexane-2-carboxamide] gave an IC50 of 1870 nM.
`O=C(O)/C(F)=C/[C@H](C[C@@H]1CCCNC1=O)NC(=O)[C@H](CC1CCCCC1)NC(=O)c1cc2ccccc2o1` [14i, (S,Z)-4-((S)-2-(benzofuran-2-carboxamido)-3-cyclohexylpropanamido)-2-fluoro-5-((S)-2-oxopiperidin-3-yl)pent-2-enoic acid] was tested, and the IC50 was 2160 nM.
`O=C(N[C@@H](Cc1ccc(F)cc1)C(=O)N[C@H](/C=C/S(=O)(=O)c1ccccc1)C[C@@H]1CCCNC1=O)c1cc2ccccc2o1` [14c, N-((S)-3-(4-fluorophenyl)-1-oxo-1-(((S,E)-1-((S)-2-oxopiperidin-3-yl)-4-(phenylsulfonyl)but-3-en-2-yl)amino)propan-2-yl)benzofuran-2-carboxamide] gave an IC50 of 50.3 ± 12.1 nM.
In the case of `O=C(N[C@@H](Cc1ccc(F)cc1)C(=O)N[C@H](/C=N/Nc1ncccn1)C[C@@H]1CCCNC1=O)c1cc2ccccc2o1` [14h, N-((S)-3-(4-fluorophenyl)-1-oxo-1-(((S,E)-1-((S)-2-oxopiperidin-3-yl)-3-(2-(pyrimidin-2-yl)hydrazineylidene)propan-2-yl)amino)propan-2-yl)benzofuran-2-carboxamide], the IC50 is reported as 1600 nM.
With `O=C(N[C@@H](Cc1ccc(F)cc1)C(=O)N[C@H](/C=N/NC(=O)C1CCCCC1)C[C@@H]1CCCNC1=O)c1cc2ccccc2o1` [14f, N-((S)-1-(((S,E)-1-(2-(cyclohexanecarbonyl)hydrazineylidene)-3-((S)-2-oxopiperidin-3-yl)propan-2-yl)amino)-3-(4-fluorophenyl)-1-oxopropan-2-yl)benzofuran-2-carboxamide] the IC50 was 8530 nM.

Same assay, conditions: read-out: IC50, enzymatic inhibitory activity against human CTSL; mean ± SD
For `O=C(N[C@@H](CC1C=CC=CC1)C(=O)N[C@H](/C=C/S(=O)(=O)c1ccccc1)C[C@@H]1CCCNC1=O)c1cc2ccccc2o1` (stereo partly drawn) [14d, N-((2S)-3-(cyclohexa-2,4-dien-1-yl)-1-oxo-1-(((S,E)-1-((S)-2-oxopiperidin-3-yl)-4-(phenylsulfonyl)but-3-en-2-yl)amino)propan-2-yl)benzofuran-2-carboxamide], the IC50 was 77.2 ± 12 nM.

Same assay, conditions: read-out: Inhibition rate against human CTSL
For `O=C(NC1CC1)/C(F)=C/[C@H](C[C@@H]1CCCNC1=O)NC(=O)[C@H](CC1CCCCC1)NC(=O)c1cc2ccccc2o1` [14k, N-((S)-3-cyclohexyl-1-(((S,Z)-5-(cyclopropylamino)-4-fluoro-5-oxo-1-((S)-2-oxopiperidin-3-yl)pent-3-en-2-yl)amino)-1-oxopropan-2-yl)benzofuran-2-carboxamide], the inhibition at 1 µM was 37%.
Molecule `CCOC(=O)/C(F)=C/[C@H](C[C@@H]1CCCNC1=O)NC(=O)[C@H](CC1CCCCC1)NC(=O)c1cc2ccccc2o1` [14j, Ethyl (S,Z)-4-((S)-2-(benzofuran-2-carboxamido)-3-cyclohexylpropanamido)-2-fluoro-5-((S)-2-oxopiperidin-3-yl)pent-2-enoate] has an inhibition at 1 µM of 30%.
For `O=C(NCc1ccccc1)C(=O)[C@H](C[C@@H]1CCCNC1=O)NC(=O)[C@@H]1[C@H]2CCC[C@H]2CN1C(=O)c1cc2ccccc2o1` [14l, (1S,3aR,6aS)-2-(benzofuran-2-carbonyl)-N-((S)-4-(benzylamino)-3,4-dioxo-1-((S)-2-oxopiperidin-3-yl)butan-2-yl)octahydrocyclopenta[c]pyrrole-1-carboxamide], the inhibition at 1 µM was 12%.
